# Structures can show the parent of a compound that is named as a salt. Where two headings read alike, the source gives them in different places.
# Biological target: T1, human Nav1.8 (hNav1.8) ion channel (Homo sapiens, UniProt Q9Y5Y9)
# T1 construct: expressed in transfected cells
# Assay: Inhibition of human Nav1.8 stably expressed in SH-SY-5Y cells (membrane potential dye fluorescence assay)
# Format: cell-based
# Conditions: FLIPR membrane potential dye, 10 μM pyrethroid, 250 nM TTX, test concentration range 100 μM-0.05 μM
# [1] = SH-SY-5Y hNav1.8 cells, read-out: hNav1.8 IC50
# [2] = hNav1.8 IC50, SH-SY-5Y hNav1.8 cells
# T1 sequence (Q9Y5Y9 whole entry): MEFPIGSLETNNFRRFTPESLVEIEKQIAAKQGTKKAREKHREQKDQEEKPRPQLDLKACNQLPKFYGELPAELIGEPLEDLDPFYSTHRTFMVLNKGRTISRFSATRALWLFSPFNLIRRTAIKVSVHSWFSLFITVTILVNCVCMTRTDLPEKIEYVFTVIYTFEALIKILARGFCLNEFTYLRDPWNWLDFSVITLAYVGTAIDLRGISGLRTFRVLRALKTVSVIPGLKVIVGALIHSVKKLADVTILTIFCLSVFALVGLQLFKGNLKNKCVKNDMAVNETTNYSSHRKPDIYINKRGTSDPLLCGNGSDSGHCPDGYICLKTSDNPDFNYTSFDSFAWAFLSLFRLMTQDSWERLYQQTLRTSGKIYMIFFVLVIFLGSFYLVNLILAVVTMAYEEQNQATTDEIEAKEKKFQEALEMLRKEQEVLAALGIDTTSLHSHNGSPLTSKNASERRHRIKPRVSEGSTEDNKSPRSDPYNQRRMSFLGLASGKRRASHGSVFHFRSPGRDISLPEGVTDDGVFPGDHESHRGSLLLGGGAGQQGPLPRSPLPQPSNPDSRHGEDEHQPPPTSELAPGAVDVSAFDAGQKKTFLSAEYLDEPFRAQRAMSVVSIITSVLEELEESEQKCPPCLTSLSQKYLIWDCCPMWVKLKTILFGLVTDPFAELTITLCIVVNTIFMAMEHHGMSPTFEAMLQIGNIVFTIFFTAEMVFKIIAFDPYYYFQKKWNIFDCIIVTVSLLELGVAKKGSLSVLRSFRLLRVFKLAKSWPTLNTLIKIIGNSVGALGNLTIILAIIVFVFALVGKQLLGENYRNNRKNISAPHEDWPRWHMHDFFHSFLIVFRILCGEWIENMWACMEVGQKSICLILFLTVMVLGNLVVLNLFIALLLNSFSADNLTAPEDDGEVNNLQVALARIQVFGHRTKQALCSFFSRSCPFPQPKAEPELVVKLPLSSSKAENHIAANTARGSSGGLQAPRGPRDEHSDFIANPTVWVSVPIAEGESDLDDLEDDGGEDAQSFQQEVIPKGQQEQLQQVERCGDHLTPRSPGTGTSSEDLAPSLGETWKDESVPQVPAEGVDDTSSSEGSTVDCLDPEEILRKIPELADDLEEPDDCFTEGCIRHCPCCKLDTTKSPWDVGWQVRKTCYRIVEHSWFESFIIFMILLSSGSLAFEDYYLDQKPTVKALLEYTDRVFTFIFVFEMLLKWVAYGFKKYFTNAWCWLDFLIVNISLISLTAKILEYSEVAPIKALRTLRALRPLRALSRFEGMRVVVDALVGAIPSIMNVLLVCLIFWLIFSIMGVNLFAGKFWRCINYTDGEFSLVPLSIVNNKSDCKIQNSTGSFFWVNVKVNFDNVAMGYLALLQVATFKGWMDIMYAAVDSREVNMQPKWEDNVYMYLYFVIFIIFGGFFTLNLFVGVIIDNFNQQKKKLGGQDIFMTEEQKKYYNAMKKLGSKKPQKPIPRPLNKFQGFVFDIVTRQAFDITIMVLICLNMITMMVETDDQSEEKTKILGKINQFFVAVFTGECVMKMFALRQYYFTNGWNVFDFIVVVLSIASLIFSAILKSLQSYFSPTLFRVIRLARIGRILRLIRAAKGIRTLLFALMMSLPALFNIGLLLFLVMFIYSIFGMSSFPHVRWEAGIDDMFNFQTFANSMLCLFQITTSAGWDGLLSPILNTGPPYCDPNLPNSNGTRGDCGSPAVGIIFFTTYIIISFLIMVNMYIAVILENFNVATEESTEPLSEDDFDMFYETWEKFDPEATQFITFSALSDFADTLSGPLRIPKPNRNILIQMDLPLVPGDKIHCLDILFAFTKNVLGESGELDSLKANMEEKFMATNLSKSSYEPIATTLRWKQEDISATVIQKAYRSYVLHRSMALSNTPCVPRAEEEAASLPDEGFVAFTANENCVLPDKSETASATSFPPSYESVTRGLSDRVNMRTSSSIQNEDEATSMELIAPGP
Molecule,IC50 [1] [µM],IC50 [2] [µM]
"Cc1cc(F)ccc1C(C)N1CC2CC1CN2C(=O)Nc1ccc(C(=O)c2ccccc2)cc1 (stereo not drawn) [Example 72, 5-[1-(4-Fluoro-2-methyl-phenyl)-ethyl]-2,5-diaza-bicyclo[2.2.1]heptane-2-carboxylic acid (4-benzoyl-phenyl)-amide]",2.26,
"CC(Cc1ccccc1F)N1CC2CC1CN2C(=O)Nc1ccc(C(F)(F)F)cc1 (stereo not drawn) [Example 79, 5-[2-(2-Fluoro-phenyl)-1-methyl-ethyl]-2,5-diaza-bicyclo[2.2.1]heptane-2-carboxylic acid (4-trifluoromethyl-phenyl)-amide]",0.78,
"O=C(Cc1ccc(Oc2ccc(F)cc2)cc1)N1CC2CC1CN2C1CCc2ccccc2C1 (stereo not drawn) [Example 142, 2-[4-(4-Fluoro-phenoxy)-phenyl]-1-[5-(1,2,3,4-tetrahydro-naphthalen-2-yl)-2,5-diaza-bicyclo[2.2.1]hept-2-yl]-ethanone]",,0.28
"O=C(Nc1ccc(Oc2ccc(F)cc2)cc1)N1CC2CC1CN2C1CCc2cc(F)ccc21 (stereo not drawn) [Example 92, 5-(5-Fluoro-indan-1-yl)-2,5-diaza-bicyclo[2.2.1]heptane-2-carboxylic acid [4-(4-fluoro-phenoxy)-phenyl]-amide]",0.36,
"Cc1cc(F)ccc1C(C)N1CC2CC1CN2C(=O)Nc1ccc(C(=O)c2ccccc2)cc1 (stereo not drawn) [Example 71, 5-[1-(4-Fluoro-2-methyl-phenyl)-ethyl]-2,5-diaza-bicyclo[2.2.1]heptane-2-carboxylic acid (4-benzoyl-phenyl)-amide]",2.36,
"CC(c1ccccc1C(F)(F)F)N1CC2CC1CN2C(=O)Nc1cccc(Oc2ccccc2)c1 (stereo not drawn) [Example 63, 5-[1-(2-Trifluoromethyl-phenyl)-ethyl]-2,5-diaza-bicyclo[2.2.1]heptane-2-carboxylic acid (3-phenoxy-phenyl)-amide]",6.1,
"Cc1ccccc1C(C)N1CC2CC1CN2C(=O)Nc1ccc(OCC2CCCO2)cc1 (stereo not drawn) [Example 26, 5-(1-o-Tolyl-ethyl)-2,5-diaza-bicyclo[2.2.1]heptane-2-carboxylic acid [4-(tetrahydro-furan-2-ylmethoxy)-phenyl]-amide]",16.7,
"O=C(Nc1ccc(Oc2ccc(F)cc2)cc1)N1CC2CC1CN2C1CCc2cc(F)ccc2C1 (stereo not drawn) [Example 102, 5-(6-Fluoro-1,2,3,4-tetrahydro-naphthalen-2-yl)-2,5-diaza-bicyclo[2.2.1]heptane-2-carboxylic acid [4-(4-fluoro-phenoxy)-phenyl]-amide]",0.71,
"CC(Cc1ccc(Cl)cc1)N1CC2CC1CN2C(=O)Nc1ccc(C(F)(F)F)cc1 (stereo not drawn) [Example 83, 5-[2-(4-Chloro-phenyl)-1-methyl-ethyl]-2,5-diaza-bicyclo[2.2.1]heptane-2-carboxylic acid (4-trifluoromethyl-phenyl)-amide]",0.68,
"1-{5-[1-(2,5-Dichloro-phenyl)-ethyl]-2,5-diaza-bicyclo[2.2.1]hept-2-yl}-2-[4-(4-fluoro-phenoxy)-phenyl]-ethanone [Example 157]",≥ 30,
"CC(c1ccccn1)N1CC2CC1CN2C(=O)c1ccc(Oc2ccc(F)cc2)cc1 (stereo not drawn) [Example 181, [4-(4-Fluoro-phenoxy)-phenyl]-[5-(1-pyridin-2-yl-ethyl)-2,5-diaza-bicyclo[2.2.1]hept-2-yl]-methanone]",9.93,
"CC(c1ccccc1Cl)N1CC2CC1CN2C(=O)c1ccc(Oc2ccc(F)cc2)cc1 (stereo not drawn) [Example 152, {5-[1-(2-Chloro-phenyl)-ethyl]-2,5-diaza-bicyclo[2.2.1]hept-2-yl}-[4-(4-fluoro-phenoxy)-phenyl]-methanone]",2.52,
"CC(c1ccc(F)cc1Cl)N1CC2CC1CN2C(=O)c1ccc(Oc2ccc(F)cc2)cc1 (stereo not drawn) [Example 164, {5-[1-(2-Chloro-4-fluoro-phenyl)-ethyl]-2,5-diaza-bicyclo[2.2.1]hept-2-yl}-[4-(4-fluoro-phenoxy)-phenyl]-methanone]",13.5,
"CC(c1ccc(Cl)cc1Cl)N1CC2CC1CN2C(=O)Nc1ccc(Oc2ccc(Cl)cc2)cc1 (stereo not drawn) [Example 121, 5-[1-(2,4-Dichloro-phenyl)-ethyl]-2,5-diaza-bicyclo[2.2.1]heptane-2-carboxylic acid [4-(4-chloro-phenoxy)-phenyl]-amide]",22.4,
"CC(c1ccc(Cl)cc1Cl)N1CC2CC1CN2C(=O)Nc1ccc(Oc2ccc(Cl)cc2)cc1 (stereo not drawn) [Example 122, 5-[1-(2,4-Dichloro-phenyl)-ethyl]-2,5-diaza-bicyclo[2.2.1]heptane-2-carboxylic acid [4-(4-chloro-phenoxy)-phenyl]-amide]",19.2,
"CC(c1ccccc1C(F)(F)F)N1CC2CC1CN2C(=O)Nc1cccc(Oc2ccccc2)c1 (stereo not drawn) [Example 61, 5-[1-(2-Trifluoromethyl-phenyl)-ethyl]-2,5-diaza-bicyclo[2.2.1]heptane-2-carboxylic acid (3-phenoxy-phenyl)-amide]",4.64,
"Cc1ccccc1C(C)N1CC2CC1CN2C(=O)Nc1ccc(C(O)c2ccccc2)cc1 (stereo not drawn) [Example 68, 5-(1-o-Tolyl-ethyl)-2,5-diaza-bicyclo[2.2.1]heptane-2-carboxylic acid [4-(hydroxy-phenyl-methyl)-phenyl]-amide]",6.15,

Molecule,IC50 [1] [µM],IC50 [2] [µM]
"CC(c1c(F)cccc1F)N1CC2CC1CN2C(=O)Nc1ccc(Oc2ccccc2)cc1 (stereo not drawn) [Example 9, 5-[1-(2,6-Difluoro-phenyl)-ethyl]-2,5-diaza-bicyclo[2.2.1]heptane-2-carboxylic acid (4-phenoxy-phenyl)-amide]",0.87,
"Cc1ccc(Oc2ccc(NC(=O)N3CC4CC3CN4C(C)c3ccccc3Cl)cc2)cc1 (stereo not drawn) [Example 140, 5-[1-(2-Chloro-phenyl)-ethyl]-2,5-diaza-bicyclo[2.2.1]heptane-2-carboxylic acid (4-p-tolyloxy-phenyl)-amide]",1.23,
"COc1ccccc1CC(C)N1CC2CC1CN2C(=O)Nc1ccc(C(F)(F)F)cc1 (stereo not drawn) [Example 86, 5-[2-(2-Methoxy-phenyl)-1-methyl-ethyl]-2,5-diaza-bicyclo[2.2.1]heptane-2-carboxylic acid (4-trifluoromethyl-phenyl)-amide]",0.67,
"O=C(Nc1ccc(C(F)(F)F)cc1)N1CC2CC1CN2C1CCc2cc(F)ccc2C1 (stereo not drawn) [Example 100, 5-(6-Fluoro-1,2,3,4-tetrahydro-naphthalen-2-yl)-2,5-diaza-bicyclo[2.2.1]heptane-2-carboxylic acid (4-trifluoromethyl-phenyl)-amide]",0.64,
"Cc1ccccc1C(C)N1CC2CC1CN2C(=O)Nc1ccc(OC2CCN(Cc3ccccc3)CC2)cc1 (stereo not drawn) [Example 40, 5-(1-o-Tolyl-ethyl)-2,5-diaza-bicyclo[2.2.1]heptane-2-carboxylic acid [4-(1-benzyl-piperidin-4-yloxy)-phenyl]-amide]",2.01,
"COCCOCCOc1ccc(NC(=O)N2CC3CC2CN3C(C)c2ccccc2C)cc1 (stereo not drawn) [Example 18, 5-(1-o-Tolyl-ethyl)-2,5-diaza-bicyclo[2.2.1]heptane-2-carboxylic acid {4-[2-(2-methoxy-ethoxy)-ethoxy]-phenyl}-amide]",≥ 30,
"O=C(Nc1ccc(Oc2ccccc2)cc1)N1CC2CC1CN2C1Cc2ccc(F)cc2C1 (stereo not drawn) [Example 125, 5-(5-Fluoro-indan-2-yl)-2,5-diaza-bicyclo[2.2.1]heptane-2-carboxylic acid (4-phenoxy-phenyl)-amide]",0.78,
"CC(c1ccc(F)cc1Cl)N1CC2CC1CN2C(=O)Nc1ccc(Oc2ccc(F)cc2)cc1 (stereo not drawn) [Example 132, 5-[1-(2-Chloro-4-fluoro-phenyl)-ethyl]-2,5-diaza-bicyclo[2.2.1]heptane-2-carboxylic acid [4-(4-fluoro-phenoxy)-phenyl]-amide]",1.14,
"Cc1ccccc1C(C)N1CC2CC1CN2C(=O)Nc1ccc(OCc2ccccc2)cc1 (stereo not drawn) [Example 33, 5-(1-o-Tolyl-ethyl)-2,5-diaza-bicyclo[2.2.1]heptane-2-carboxylic acid (4-benzyloxy-phenyl)-amide]",0.49,
"O=C(Cc1ccc(C(F)(F)F)cc1)N1CC2CC1CN2C1CCc2ccc(F)cc2C1 (stereo not drawn) [Example 148, 1-[5-(7-Fluoro-1,2,3,4-tetrahydro-naphthalen-2-yl)-2,5-diaza-bicyclo[2.2.1]hept-2-yl]-2-(4-trifluoromethyl-phenyl)-ethanone]",,2.39
"CC(c1ccccc1Cl)N1CC2CC1CN2C(=O)Nc1ccc(Oc2ccc(F)cc2)cc1 (single isomer, unassigned) [Example 73, 5-[1-(2-Chloro-phenyl)-ethyl]-2,5-diaza-bicyclo[2.2.1]heptane-2-carboxylic acid [4-(4-fluoro-phenoxy)-phenyl]-amide]",1.13,
"O=C(Cc1ccc(Oc2ccccc2)cc1)N1CC2CC1CN2C1Cc2ccc(F)cc2C1 (stereo not drawn) [Example 134, 1-[5-(5-Fluoro-indan-2-yl)-2,5-diaza-bicyclo[2.2.1]hept-2-yl]-2-(4-phenoxy-phenyl)-ethanone]",,1.6
"Cc1ccsc1C(C)N1CC2CC1CN2C(=O)Nc1ccc(C(F)(F)F)cc1 (stereo not drawn) [Example 15, 5-[1-(3-Methyl-thiophen-2-yl)-ethyl]-2,5-diaza-bicyclo[2.2.1]heptane-2-carboxylic acid (4-trifluoromethyl-phenyl)-amide]",3.04,
"CC(c1ccccc1Cl)N1CC2CC1CN2C(=O)Nc1ccc(Oc2ccc(F)cc2)nc1 (stereo not drawn) [Example 182, 5-[1-(2-Chloro-phenyl)-ethyl]-2,5-diaza-bicyclo[2.2.1]heptane-2-carboxylic acid [6-(4-fluoro-phenoxy)-pyridin-3-yl]-amide methanesulfonate salt]",0.27,
"Cc1ccccc1C(C)N1CC2CC1CN2C(=O)Nc1cccc(Oc2ccccc2)c1 (stereo not drawn) [Example 8, 5-(1-o-Tolyl-ethyl)-2,5-diaza-bicyclo[2.2.1]heptane-2-carboxylic acid (3-phenoxy-phenyl)-amide]",0.68,
"CC(c1ccccc1Cl)N1CC2CC1CN2C(=O)c1ccc(Oc2cccc(F)c2)cc1 (stereo not drawn) [Example 175, {5-[1-(2-Chloro-phenyl)-ethyl]-2,5-diaza-bicyclo[2.2.1]hept-2-yl}-[4-(3-fluoro-phenoxy)-phenyl]-methanone]",0.64,
